The test system of the test is mice. Description: Passive-Avoidance test (modified step-through, fall into cold water bath), amnesia induced by scopolamine, baclofen, mecamylamine or clonidine. The test is classed as in vivo, mouse. Particulars: for 2nd Day (latency time for entering the dark compartment, retention test after 24 h): max latency 120 s. The protocol: A slightly modified step-through method described by Jarvik and [Psycol. Rep. […] The apparatus consists of a two-compartment acrylic box with a lighted compartment connected to the darkened one by a guillotine door. In the original method, mice received a punishing electrical shock as soon as they entered the dark compartment, while in our modified method, after entry into the dark compartment, mice receive a non-painful punishment consisting of a fall (from 40 cm ) into a cold water bath (10°C) . For this purpose the dark chamber was constructed with a pitfall floor. The latency times for entering the dark compartment were measured in the training test (first day) and after 24 h in the retention test (second day). […] All investigated drugs were injected 20 min before the training session, while amnesic drugs were injected immediately after termination of the training session. […] The memory degree of received punishment (fall into cold water) was expressed as the increase in seconds between training and retention latencies (see Table 5).

Setting [1] is: 0.001 mg kg^-1 injected 20 min before training, + Scopolamine 1.5 mg kg^-1 i.p. after training.
[2] abbreviates: 0.1 mg kg^-1, + Scopolamine 1.5 mg kg^-1 i.p.
[3] abbreviates: 0.1 mg kg^-1 injected 20 min before training, + Scopolamine 1.5 mg kg^-1 i.p. after training.
The mark [4] stands for this setting: 1.0 mg kg^-1 injected 20 min before training, + Baclofen 2 mg kg^-1 i.p. after training.
Where [5] appears, read: 1.0 mg kg^-1 injected 20 min before training, + Clonidine 0.125 mg kg^-1 i.p. after training.
[6] abbreviates: 10 mg kg^-1 injected 20 min before training, + Scopolamine 1.5 mg kg^-1 i.p. after training.
The mark [7] stands for this setting: 20 mg kg^-1 injected 20 min before training, + Mecamilamine 20 mg kg^-1 i.p. after training.
The mark [8] stands for this setting: 0.01 mg kg^-1, + Scopolamine 1.5 mg kg^-1 i.p.
Where [9] appears, read: 0.01 mg kg^-1 injected 20 min before training, + Scopolamine 1.5 mg kg^-1 i.p. after training.
The mark [10] stands for this setting: 0.1 mg kg^-1 injected 20 min before training, + Baclofen 2 mg kg^-1 i.p. after training.
Setting [11] is: 0.1 mg kg^-1 injected 20 min before training, + Clonidine 0.125 mg kg^-1 i.p. after training.
The mark [12] stands for this setting: 1 mg kg^-1 injected 20 min before training, + Mecamilamine 20 mg kg^-1 i.p. after training.
Setting [13] is: 30 mg kg^-1 injected 20 min before training, + Baclofen 2 mg kg^-1 i.p. after training.
[14] abbreviates: 30 mg kg^-1 injected 20 min before training, + Scopolamine 1.5 mg kg^-1 i.p. after training.
Setting [15] is: 0.01 mg kg^-1 injected 20 min before training, + Baclofen 2 mg kg^-1 i.p. after training.
The mark [16] stands for this setting: 10 mg kg^-1 injected 20 min before training, + Mecamilamine 20 mg kg^-1 i.p. after training.

Molecules are shown by their SMILES.

`O=C1CCC2CN(S(=O)(=O)c3ccc(F)cc3)CCN12` (racemic) [Compound 2, 4-(4-fluorobenzensolfonyl)-1,4-diazabicyclo[4.3.0]nonan-9-one]: under “0.001 mg kg^-1, + Scopolamine 1.5 mg kg^-1 i.p.”, the “Δ (increase in seconds between training and retention latencies)” value came to 93.8 s. Further, under setting [1], the “1st Day (latency time for entering the dark compartment, training test)” value (“1st Day” for short) came to 19.7 ± 5.8 s and the “2nd Day (latency time for entering the dark compartment, retention test after 24 h)” value (from here on “2nd Day”) stood at 104.4 ± 10.6 s.

As for `C[C@H]1C[C@@H]2CN(C(=O)c3ccc(F)cc3)CCN2C1=O` (racemic) [Compound 3a, Exo (±) 8-methyl-4-(4-fluorobenzoyl)-1,4-diazabicyclo[4.3.0]nonan-9-one], the “Δ (increase in seconds between training and retention latencies)” value under setting [2] came to 85.6 s. Moreover, under setting [3], the “1st Day” value worked out at 21.8 ± 4.8 s and the “2nd Day” value stood at 107.4 ± 10.7 s.

Regarding `C[C@@H]1C[C@@H]2CN(C(=O)c3ccc(F)cc3)CCN2C1=O` (racemic) [Compound 3b, Endo (±) 8-methyl-4-(4-fluorobenzoyl)-1,4-diazabicyclo[4.3.0]nonan-9-one], the “Δ (increase in seconds between training and retention latencies)” value under setting [2] is reported as 80.0 s. For the same molecule, under setting [3], the “1st Day” value turned out to be 12.5 ± 5.9 s and the “2nd Day” value is 104.0 ± 8.6 s.

As to `O=C(c1ccc(F)cc1)N1CCN2C(=O)CCC2C1` (stereo not shown) [Compound 1, 4-(4-fluorobenzoyl)-1,4-diazabicyclo[4.3.0]nonan-9-one], the “Δ (increase in seconds between training and retention latencies)” value under setting [2] is listed as 82.2 s. Also, under setting [3], the “1st Day” value is 18.1 ± 3.9 s and the “2nd Day” value amounted to 100.3 ± 10.4 s.

Consider `C[C@H]1C[C@@H]2CN(S(=O)(=O)c3ccc(F)cc3)CCN2C1=O` [Compound 4a, Exo 8-methyl-4-(4-fluorobenzensolfonyl)-1,4-diazabicyclo[4.3.0]nonan-9-one], for which the “Δ (increase in seconds between training and retention latencies)” value under setting [2] is 78.0 s. Further, under setting [3], the “1st Day” value came out at 16.9 ± 6.1 s and the “2nd Day” value stood at 94.9 ± 11.2 s.

As for `C[C@@H]1C[C@@H]2CN(S(=O)(=O)c3ccc(F)cc3)CCN2C1=O` [Compound 4b, Endo 8-methyl-4-(4-fluorobenzensolfonyl)-1,4-diazabicyclo[4.3.0]nonan-9-one], the “Δ (increase in seconds between training and retention latencies)” value under setting [2] is on record as 96.5 s. Under setting [3], the “1st Day” value is 21.9 ± 4.7 s and the “2nd Day” value is 118.4 ± 10.2 s.

As to `CC(=O)N1CCN(C(=O)c2ccc(F)cc2)CC1` [Compound 5, 4-Acetyl-1-(4-fluorobenzoyl)piperazine], the “Δ (increase in seconds between training and retention latencies)” value runs as follows: (1.0 mg kg^-1, + Baclofen 2 mg kg^-1 i.p.) 93.2 s; (1.0 mg kg^-1, + Clonidine 0.125 mg kg^-1 i.p.) 88.1 s; (10 mg kg^-1, + Scopolamine 1.5 mg kg^-1 i.p.) 72.6 s; (20 mg kg^-1, + Mecamilamine 20 mg kg^-1 i.p.) 91.7 s. In addition, the “1st Day” value reads like this: under setting [4], 11.4 ± 5.2 s; under setting [5], 8.0 ± 4.1 s; under setting [6], 17.5 ± 6.1 s; under setting [7], 17.0 ± 2.7 s. Further, the “2nd Day” value by setting is: under setting [4], 104.6 ± 10.3 s; under setting [5], 96.1 ± 10.7 s; under setting [6], 91.1 ± 9.5 s; under setting [7], 108.7 ± 3.5 s.

As for `CC(=O)N1CCN(S(=O)(=O)c2ccc(F)cc2)CC1` [Compound 6, 4-Acetyl-1-(4-fluorobenzensolfonyl)piperazine], the “Δ (increase in seconds between training and retention latencies)” value reads like this: under setting [8], 79.2 s; (0.1 mg kg^-1, + Baclofen 2 mg kg^-1 i.p.) 80.4 s; (0.1 mg kg^-1, + Clonidine 0.125 mg kg^-1 i.p.) 77.4 s; (1 mg kg^-1, + Mecamilamine 20 mg kg^-1 i.p.) 91.6 s. Besides, the “1st Day” value by setting is: under setting [9], 19.8 ± 4.1 s; under setting [10], 11.7 ± 4.1 s; under setting [11], 14.7 ± 3.7 s; under setting [12], 18.1 ± 3.8 s. Further, the “2nd Day” value was 99.0 ± 18.3 s under setting [9], 92.1 ± 7.9 s under setting [10], 92.4 ± 8.1 s under setting [11] and 109.7 ± 13.6 s under setting [12].

Turning to `CCC(=O)N1CCN(C(=O)c2ccc(F)cc2)CC1` [Compound 7, 4-Propionyl-1-(4-fluorobenzoyl)piperazine], the “Δ (increase in seconds between training and retention latencies)” value is, setting by setting: (30 mg kg^-1, + Baclofen 2 mg kg^-1 i.p.) 86.8 s; (30 mg kg^-1, + Scopolamine 1.5 mg kg^-1 i.p.) 80.5 s. Moreover, the “1st Day” value reads like this: under setting [13], 20.6 ± 4.9 s; under setting [14], 11.9 ± 5.6 s. Besides, the “2nd Day” value under setting [13] is 107.1 ± 11.4 s and the “2nd Day” value under setting [14] was determined as 92.4 ± 10.1 s.

For `CCC(=O)N1CCN(S(=O)(=O)c2ccc(F)cc2)CC1` [Compound 8, 4-Propionyl-1-(4-fluorobenzensolfonyl)piperazine], the “Δ (increase in seconds between training and retention latencies)” value is listed as 86.8 s (0.01 mg kg^-1, + Baclofen 2 mg kg^-1 i.p.); 67.9 s under setting [8]; 90.2 s (10 mg kg^-1, + Mecamilamine 20 mg kg^-1 i.p.). The “1st Day” value under setting [15] was found to be 16.3 ± 3.3 s; the “1st Day” value under setting [9] was determined as 15.9 ± 3.2 s; the “1st Day” value under setting [16] was 16.5 ± 2.7 s. The “2nd Day” value runs as follows: under setting [15], 103.3 ± 13.9 s; under setting [9], 83.8 ± 9.2 s; under setting [16], 106.7 ± 10.2 s.

With `NC(=O)CN1CCCC1=O` [Piracetam, piracetam, reference compound], the “1st Day” value came out at 20.9 ± 4.5 s under setting [13]; 11.6 ± 3.7 s (30 mg kg^-1 injected 20 min before training, + Clonidine 0.125 mg kg^-1 i.p. after training); 16.7 ± 4.8 s (30 mg kg^-1 injected 20 min before training, + Mecamilamine 20 mg kg^-1 i.p. after training); 17.6 ± 3.6 s under setting [14].

(Values after EP1118612A1, “Piperazine derivatives possesing nootropic activity” (Universita Degli Studi di Firenze, priority 2000, dated 2001).)
